In patent US8236984B2, “Compound and use thereof in the treatment of amyloidosis” (Pentraxin Therapeutics Ltd., priority 2007, dated 2012):
Entries after “also recorded” stand apart in the source; their conditions may differ.

Experiments:
[1] = target: T1, transthyretin (Homo sapiens, UniProt P02766); experiment: Intrinsic fluorescence quenching of transthyretin by ligand titration; format: binding; details: 1 μM transthyretin, PBS pH 7.4, ligand 0-2 μM, excitation 280 nm, 20° C.
T1 construct: Native tetrameric transthyretin was purified from fractionated human plasma; from tissue; host or cells: human plasma
Protocol: 3.2.1. Binding of 4ajm15 and mds84 by transthyretin. The interactions between the ligands 4ajm15 or mds84 and transthyretin were studied by monitoring intrinsic fluorescence in the emission range 300-500 nm on excitation at 280 nm using a Perkin Elmer LS55 fluorimeter and a standard 1 cm path length quartz cell at 20° C. Quenching of tryptophan was achieved by titrating 1 μM transthyretin in PBS, pH 7.4 with increasing concentrations of each ligand in the range 0-2 μM (FIG. 2A). […] At the same time the changes in 4ajm15 fluorescence upon binding to the protein were monitored in the emission range 400-600 nm and excitation at 340 nm that is the wavelength specific for 4ajm15 excitation. In these conditions, accumulation of the spectra highlights an isosbestic point at 483 nm (FIG. 2B). The same results were achieved by using mds84 (not shown). The results of the titration of 4ajm15 in presence and absence of transthyretin support a model of binding in which both the binding sites are simultaneously occupied by the palindromic ligand.
In each case increasing concentrations of ligand (0-2 μM) were added to 1 μM protein. The arrow in FIG. 2B indicates the isosbestic point at 483 nm occurring on formation of the protein ligand complex. […] The percent quenching represents ΔF/F0 where F0 is fluorescence intensity prior to the addition of ligands and AF is the decrease in fluorescence at a given ligand concentration.

[2] = target: T2, wild type transthyretin isolated from plasma (Homo sapiens, UniProt P02766); experiment: Competition with 125I-T4 for binding by pure transthyretin; details: 125 nM transthyretin, trace 125I-T4, pH 8.0, overnight 4° C.
T2 construct: Native tetrameric transthyretin was purified from fractionated human plasma; from tissue; host or cells: human plasma

[3] = target: transthyretin Ala60 (Homo sapiens, UniProt P02766); experiment: Displacement of 125I-T4 from transthyretin in whole serum; format: binding; details: read-out: IC50 for displacement of T4 from transthyretin Ala60 in serum; whole serum of heterozygous subjects, mean
Source text: (§1) 3.2.3.2. Quantitative studies in serum. […] The immunoprecipitate was recovered by centrifugation, washed twice with 0.1 M Tris, 0.1 M NaCl, pH 8.0 and counted.

[4] = target: T3, transthyretin Tyr77 (Homo sapiens, UniProt P02766, S97Y); experiment: as above; format: binding; details: whole serum of heterozygous subjects, mean
T3 construct: The displacement of T4 from transthyretin in whole serum; from tissue; host or cells: whole serum of heterozygous carriers
Source text: as §1

[5] = target: T1, transthyretin; experiment: Analytical ultracentrifugation (sedimentation velocity and equilibrium); format: biochemical
Protocol: 4.1. Analytical ultracentrifugation. Sedimentation velocity and equilibrium analytical centrifugation experiments were performed at 20° C. on a Beckman XL-I instrument equipped with an An50Ti rotor in which both absorbance (recorded at a wavelength of 280 nm) and interference scans were recorded simultaneously. Sedimentation analyses were performed at pH 4.4 by incubating the protein (3.6 μM) for 72 h under the conditions of the stagnant transthyretin aggregation-inhibition assay (Petrassi et al., 2000) in presence of the ligand (3.6 μM). […] Sedimentation velocity data were acquired over 8 h at rotor speed of 42,000 rpm in two-sector cells with solution column heights of 12 mm. Absorbance values were modelled as a continuous distribution of sedimentation coefficients, c(s) (Schuck, 2000) using the software SEDFIT (Schuck, 2005). Sedimentation equilibrium measurements of transthyretin bound to the ligand, in the same conditions used for the sedimentation velocity analysis, were acquired using six-sector cells in an AnTi 50 rotor with column heights of 2 mm at rotor speed of 17,000 rpm until equilibrium was reached as shown by the perfect overlay of runs measured at intervals of 5 h. A final run at 42,000 rpm was performed at the end of the experiment to determine the background levels for use in curve fitting. Data analysis was performed using Beckman software provided as an add-on to Origin Version 4.1 (Microcal Inc.) for which the partial specific volume was calculated to be 0.7353 ml/g from the amino acid sequence (Perkins, 1986). The buffer density and viscosity were calculated using the program […] (Laue et al., 1992). […] Sedimentation equilibrium analysis of transthyretin in the presence of the ligand was entirely consistent with a single species of mass 55,784±107.87 Da, in good agreement with the calculated molecular mass of tetrameric wild type transthyretin with bound 4ajm15 (55794 Da). […]

[6] = target: wild type transthyretin (Homo sapiens, UniProt P02766); experiment: Inhibition of transthyretin aggregation at acidic pH (turbidity at 400 nm); format: biochemical; set-up: isolated from pooled normal human plasma, was obtained from Scipac; purchased Scipac Ltd, Sittingbourne, Kent, UK; host or cells: pooled normal human plasma; details: pH 4.4, 3 d 37° C.
Protocol: 3.3.1 Wild type transthyretin. The purified wild type transthyretin (liquid and lyophilised) used in these experiments, isolated from pooled normal human plasma, was obtained from Scipac, (Sittingbourne, Kent, UK). Protein concentration was determined by absorbance at 280 nm after correction for light scattering at 320 nm using the absorption coefficient E1 cm^1%=14.0. […] Nano electrospray ionisation mass spectrometry confirmed the presence of normal and cysteinylated transthyretin monomers (Terazaki et al, 1998) under denaturing conditions, and solvent-bound transthyretin tetramer (Nettleton et al, 1998) under mild desolvation conditions.
3.3.2 Inhibition of transthyretin aggregation by 4ajm15: In pilot experiments, transthyretin aggregates were formed from wild type transthyretin (3.6 μM) after incubation at acidic pH for 3 d at 37° C. (Colon and Kelly, 1992). The efficacy of 4ajm15 as an inhibitor of transthyretin aggregate formation was then compared with other transthyretin ligand compounds. […] After 30 min at 37° C., the pH was adjusted to pH 4.4 (with 0.2 M sodium acetate buffer pH 4.0), and the ˜1 ml mixtures were incubated unstirred for 3 d at 37° C.
Using the same method the activities of mds84 and 4ajm15 as inhibitors of the aggregation of both wild type transthyretin and the most aggressively aggregating transthyretin variant, L55P, were evaluated in triplicate with both proteins at 3.6 μM and with one (3.6 μM) or 3 equivalents (10.8 μM) of each ligand. Wild type transthyretin was studied at pH 4.4 and L55P at pH 5.0. […] Mean values and standard deviations are shown in Table 2 and in FIG. 4, where results with 1:1 molar ratio are shown cross hatched and 3:1 molar ratio in open bars.

intrinsic fluorescence of transthyretin remaining after titration [1] [%]	IC50 [2] [µM]	IC50 [3] [µM]	IC50 [4] [µM]	sedimentation coefficient of transthyretin with bound ligand ([5]; 3.6 μM protein, 3.6 μM ligand, 72 h 37° C., pH 4.4) [S]	mass of single species by sedimentation equilibrium ([5]; 3.6 μM protein, 3.6 μM ligand, pH 4.4)	quaternary structure under tetramer-dissociating conditions ([5]; 72 h at 37° C. and pH 4.4)	Aggregation of transthyretin, Mean (1:1) ([6]; wild type 3.6 μM, ligand 3.6 μM)	Aggregation of transthyretin, Mean (3:1) ([6]; wild type 3.6 μM, ligand 10.8 μM)	Structure (SMILES)	transthyretin aggregate formation in the presence of ligand ([6]; wild type, in words)
40	0.2 ± 0.07	26.5	26.2	3.7	55,784±107.87 Da	remains tetrameric			O=C(O)c1ccccc1Nc1cc(Cl)c(OCCCCCCCCCCCOc2c(Cl)cc(Nc3ccccc3C(=O)O)cc2Cl)c(Cl)c1 [4ajm15, 2,2′-(4,4′-(undecane-1,11-diylbis(oxy))bis(3,5-dichloro-4,1-phenylene))bis(azanediyl)dibenzoic acid]	dramatically reduced; also recorded: identical to those with mds84
40	0.15 ± 0.025						1.7 per cent of control with DMSO alone	2 per cent of control with DMSO alone	O=C(O)c1ccccc1Nc1cc(Cl)c(OCCCCCCCOc2c(Cl)cc(Nc3ccccc3C(=O)O)cc2Cl)c(Cl)c1 [mds84, 2,2′-(4,4′-(heptane-1,7-diylbis(oxy))bis(3,5-dichloro-4,1-phenylene))bis(azanediyl)dibenzoic acid]	
